Source: article PMC9304929, “The Cholesterol-Binding Sequence in Monomeric C-Reactive Protein Binds to the SARS-CoV-2 Spike Receptor-Binding Domain and Blocks Interaction With Angiotensin-Converting Enzyme 2” (Frontiers in Immunology, 2022)

What was measured:
[1] = tested on: spike RBD binding to cell surface ACE2 (A549 ACE2+/+ cells); assay: Inhibition assay of spike-ACE2 interaction in cells (flow cytometry); type: cell-based, human; settings: spike RBD 140 nM with ACE2+/+ cells, compound 4°C 30 min, n = 3
SARS-CoV-2 spike RBD [2] = assay: Surface plasmon resonance (SPR) binding assay, spike RBD on CM5 chip
Protocol: (§1) Surface plasmon resonance (SPR) binding assays were performed using Biacore 8K instrument (Cytiva Life Sciences, Marlborough, MA, USA) in HEPES buffer containing 50 mM HEPES (pH 7.4), 150 mM NaCl, and 0.05% Tween-20 at 25°C. Spike-RBD was diluted to a concentration of 20 μg/mL with 10 mM sodium acetate (pH 5.0) and immobilized on a CM5 sensor chip (Cytiva Life Sciences, Marlborough, MA, USA). The mCRP samples were passed over the sensor chip at a flow rate of 30 μL/min with a concentration gradient from 3.125 nM to 100 nM. The association time was 180 s. A dissociation process was performed for 200 s at a flow rate of 30 μL/min. The dissociation constant (Kd) values were calculated by fitting result curves (subtracted from the control flow value) to a 1:1 Langmuir binding model with Biacore 8K evaluation software.

[3] = tested on: binding of mCRP to the spike RBD; assay: Peptide competition assay (ELISA) of mCRP binding to spike RBD; set-up: species or system SARS-CoV-2; settings: spike RBD-coated wells (2 μg/mL), mCRP at half-saturation concentration with synthetic peptide, mAb 3H12, n = 3
[4] = tested on: binding of the spike RBD to mCRP; set-up: species or system SARS-CoV-2
[5] = tested on: immortalized bone marrow-derived macrophages (iBMDM); assay: Cytokine release from macrophages stimulated with CBS; type: cell-based; settings: iBMDM stimulated with different concentrations of CBS, LPS positive control, n = 3
Protocol: To compare the inhibitory ability of the CBS peptide, different concentrations of the CBS peptide were added to the cell medium and incubated at 4°C for 30 min. After washing, the mixture was incubated for another 30 min with anti-Flag antibody, followed by incubation with a secondary antibody conjugated to Alexa Fluor 488. The inhibitory activity of the CBS peptide and positive control (lomefloxacin) was compared using flow cytometry with Alexa Fluor 488-conjugated spike RBD and phycoerythrin (PE)-conjugated ACE2. […] At the same time, we stimulated macrophages with the CBS peptide and detected the release of pro-inflammatory cytokines TNF-α and IL-6 to verify whether the CBS peptide itself is immunogenic.

SARS-CoV-2 pseudovirus = settings: 50 μM, preliminary results, data not shown
[6] = tested on: binding of the spike RBD to ACE2; assay: SPR competition of spike RBD binding to ACE2; set-up: species or system human; settings: fixed spike RBD concentration, different concentrations of mCRP
Protocol: as §1
Having confirmed that mCRP can bind to the spike RBD, we further questioned whether mCRP can compete for the binding of the spike RBD to ACE2. […] First, in the spike RBD binding assay with ACE2, the spike RBD concentration was fixed and different concentrations of mCRP were added to test whether mCRP could inhibit the binding of the spike RBD to ACE2.

[7] = cited from earlier work
SARS-CoV-2 spike RBD [8] = assay: Spike RBD-mCRP binding ELISA; settings: for Kd: ELISA, spike RBD-immobilized microtiter wells, detection with mCRP-specific mAb 3H12, n = 3, mean ± S.E.M.
Protocol: The interactions of the spike-RBD with mCRP or CRP were also examined by enzyme-linked immunosorbent assay (ELISA) using mCRP/CRP-specific mAbs. Briefly, 100 μL of spike-RBD (1μg/mL) in Tris-buffered saline (TBS; 10 mM Tris, 140 mM NaCl, pH 7.4) was added per well to coat in 96-well microplates overnight at 4°C. The wells were then washed three times with TBS containing 0.02% Tween-20 for 5 min and blocked with 1% bovine serum albumin (BSA) in TBS for 1 h at 37°C. Next, mCRP was added and the plates were incubated for 1 h at 37°C. The color was developed by adding tetramethyl benzidine (TMB) to the wells and the color development was stopped with 1 M H2SO4.

CCn1cc(C(=O)O)c(=O)c2cc(F)c(N3CCNC(C)C3)c(F)c21 (stereo not shown) [lomefloxacin, Lomefloxacin, reference compound]
inhibition of the binding of the spike RBD to the cell surface ACE2 [1]: almost completely inhibited

ACE2
binding of spike RBD to ACE2 (SPR) (SARS-CoV-2 spike RBD [2]; check of biological activity of the spike RBD protein): high affinity

CBS (VCLHFYTELSSTR)
inhibition of the binding of mCRP to the spike RBD (peptide competition assay) [3]: competitively inhibited | inhibition of the binding of the spike RBD to mCRP (SPR) [4]: almost completely inhibited | inhibition of the binding of the spike RBD to the cell surface ACE2 [1]: inhibit the binding of the spike RBD to the cell surface ACE2 in a concentration-dependent manner | release of pro-inflammatory cytokines TNF-α and IL-6 [5]: did not induce the release of cytokines | inhibition of the invasion of SARS-CoV-2 pseudovirus into Caco-2 cells (SARS-CoV-2 pseudovirus): partially inhibit

amino acids 35−42 (VCLHFYTE)
inhibition of the binding of mCRP to the spike RBD (peptide competition assay) [3]: still inhibited

amino acids 39−47 (FYTELSSTR)
inhibition of the binding of mCRP to the spike RBD (peptide competition assay) [3]: lost the ability to inhibit

amino acids 41−47 (TELSSTR; UniProt P02741 59-65, looked up, fragment)
inhibition of the binding of mCRP to the spike RBD (peptide competition assay) [3]: lost the ability to inhibit

mCRP
binding to the spike RBD (SPR) (SARS-CoV-2 spike RBD [2]; analyte 3.125-100 nM in fluid phase, spike RBD on CM5 chip, HEPES pH 7.4, 25°C): high affinity | inhibition of the binding of the spike RBD to ACE2 (SPR) [6]: significantly inhibited | half-life of blood-borne mCRP [7]: rather short

pCRP
binding to the spike RBD (ELISA) (SARS-CoV-2 spike RBD [8]; spike RBD-immobilized wells, detection with pCRP-specific mAb 8D8, n = 3): did not bind

r-mCRP
Kd (SARS-CoV-2 spike RBD [8]): 24.4 ± 6.48 nM

u-mCRP
Kd (SARS-CoV-2 spike RBD [8]): 44.9 ± 6.27 nM
